Results taken from US11952586B2, “B-cell cultivation method” (Hoffmann-La Roche Inc., priority 2017, dated 2024).

Assays:
murine B-cells = assay: co-cultivation of murine B-cells with feeder mix additives; type: cell-based
Procedure: (§1) Thus, in one embodiment of all methods as reported herein the feeder mix for the co-cultivation of murine- or hamster-B-cells comprises IL-4.
(§2) Thus, in one embodiment of all methods as reported herein the feeder mix for the co-cultivation of murine-B-cells or hamster-B-cells comprises IL-6. In one embodiment the IL-6 is added at a concentration of 50 ng/ml. In one embodiment IL-6 is added at a concentration of 10 ng/ml, if high IgG-concentration is required. In one embodiment the addition of IL-6 is after three days of co-cultivation of the selected B-cells and EL-4 B5 cells.

hamster B-cells = assay: co-cultivation of hamster B-cells with feeder mix additives; type: cell-based
Procedure: as §1, §2

single deposited B-cells = assay: co-cultivation of single deposited B-cells with EL-4 B5 feeder cells; IgG in supernatant by ELISA; type: cell-based, rabbit; settings: addition of PAP-1 to the co-cultivation
Procedure: Single cell sorted B-cells were cultured in 96-well plates with 200 μl/well EL-4 B5 medium with Pansorbin Cells (SAC) (Calbiochem (Merck), Darmstadt, Deutschland), EL-4 B5 cells (0-5×10^4/well) and rabbit thymocyte supernatant or cytokine mix, respectively, for 7 days at 37° C. in an atmosphere of 5% CO2 in the incubator. B-cell culture supernatants were removed for screening and the cells harvested immediately for variable region gene cloning or frozen at −80° C. in 100 μl RLT buffer (Qiagen, Hilden, Germany).
A mixture of 0.5 μg/ml of biotinylated mouse anti-rabbit IgG antibody (Sigma-Aldrich) and 0.35 μg/ml anti-rabbit IgG HRP conjugate (Sigma-Aldrich) was transferred to 384 well streptavidin coated microtiter plates (MicroCoat Biotechnologie GmbH). Dilutions of B-cell supernatants in PBS supplemented with 0.5% BSA and 0.05% Tween®-20 were added and incubated for 90 min at RT. After repeated washing (6×) with PBST (phosphate buffered saline with 0.2% Tween buffer the plates were developed with BM Blue® HRP substrate solution and color formation was measured by absorbance at 370 nm. A commercial rabbit IgG (Sigma-Aldrich) was used as a calibration standard.

Molecule: IL-6: interleukin-6, cytokine added to the feeder mix
- number of IgG+-wells/cell clones (murine B-cells; addition of IL-6 to the feeder mix, murine-B-cells): increased number of IgG^+-wells/cell clones
- IgG-concentration (hamster B-cells; addition of IL-6 to the feeder mix, hamster-B-cells): increased IgG-concentration

Molecule: O=c1ccc2c(OCCCCOc3ccccc3)c3ccoc3cc2o1 [PAP-1, 5-(4-phenoxybutoxy) psoralene]
- number of B-cell clones (single deposited B-cells): without decreasing the number of B-cell clones
- rbIgG secretion of B-cells (single deposited B-cells): increases the rbIgG secretion of B-cells in a concentration dependent manner

B1: IL-4: interleukin-4, cytokine added to the feeder mix (protein, UniProt P05112 25-153, looked up)
Interleukin-4: HKCDITLQEIIKTLNSLTEQKTLCTELTVTDIFAASKNTTEKETFCRAATVLRQFYSHHEKDTRCLGATAQQFHRHKQLIRFLKRLDRNLWGLAGLNSCPVKEANQSTLENFLERLKTIMREKYSKCSS
- number of IgG+-wells/cell clones and IgG-concentration in the supernatant (murine B-cells; addition of IL-4 to the feeder mix, murine B-cells): increases the number of IgG^+-wells/cell clones as well as the IgG-concentration in the supernatant
- number of IgG+-wells/cell clones and IgG-concentration in the supernatant (hamster B-cells; addition of IL-4 to the feeder mix, hamster B-cells): increases the number of IgG^+-wells/cell clones as well as the IgG-concentration in the supernatant
